Results taken from US10189830B2, “Alkyl-heteroaryl substituted quinone derivatives for treatment of oxidative stress disorders” (BioElectron Technology Corporation, priority 2013, dated 2019).
Read-outs that look alike come from different tables or passages of the source.

Test system: Human dermal fibroblasts from Friedreich's Ataxia patients
Assay: Rescue of BSO-stressed FRDA fibroblasts (Calcein AM viability screen)
Type: cell-based
Conditions: FRDA fibroblasts GM04078, 1 mM BSO, 48 h
Experimental: An initial screen was performed to identify compounds effective for the amelioration of redox disorders. Test samples, 4 reference compounds (idebenone, decylubiquinone, Trolox and alpha-tocopherol), and solvent controls were tested for their ability to rescue FRDA fibroblasts stressed by addition of L-buthionine-(S,R)-sulfoximine (BSO), as described in Jauslin et al., Hum. Mol. Genet. 11(24):3055 (2002), Jauslin et al., FASEB J. 17:1972-4 (2003), and International Patent Application WO 2004/003565. […] This specific BSO-mediated cell death can be prevented by administration of antioxidants or molecules involved in the antioxidant pathway, such as alpha-tocopherol, selenium, or small molecule glutathione peroxidase mimetics. However, antioxidants differ in their potency, i.e. the concentration at which they are able to rescue BSO-stressed FRDA fibroblasts.
MEM (a medium enriched in amino acids and vitamins, catalog no. 1-31F24-I) and Medium 199 (M199, catalog no. 1-21F22-I) with Earle's Balanced Salts, without phenol red, were purchased from Bioconcept. Fetal Calf Serum was obtained from PAA Laboratories. Basic fibroblast growth factor and epidermal growth factor were purchased from PeproTech. Penicillin-streptomycin-glutamine mix, L-buthionine (S,R)-sulfoximine, (+)-alpha-tocopherol, decylubiquinone, and insulin from bovine pancreas were purchased from Sigma. Trolox (6-Hydroxy-2,5,7,8-tetramethylchromane-2-carboxylic acid) was obtained from Fluka. Idebenone was obtained from Chemo Iberica. Calcein AM was purchased from Anaspec. Cell culture medium was made by combining 125 ml M199 EBS, 50 ml Fetal Calf Serum, 100 U/ml penicillin, 100 microgram/ml streptomycin, 2 mM glutamine, 10 microgram/ml insulin, 10 ng/ml EGF, and 10 ng/ml bFGF; MEM EBS was added to make the volume up to 500 ml. A 10 mM BSO solution was prepared by dissolving 444 mg BSO in 200 ml of medium (Invitrogen, Carlsbad, Ca.) with subsequent filter-sterilization. During the course of the experiments, this solution was stored at +4° C. The cells were obtained from the Coriell Cell Repositories (Camden, N.J.; repository number GM04078) and grown in 10 cm tissue culture plates. Every third day, they were split at a 1:3 ratio.
The test samples were supplied in 1.5 ml glass vials. The compounds were diluted with DMSO, ethanol or PBS to result in a 5 mM stock solution. Once dissolved, they were stored at −20° C. Reference antioxidants (idebenone, decylubiquinone, alpha-tocopherol and Trolox) were dissolved in DMSO.
Test samples were screened according to the following protocol:
A culture with FRDA fibroblasts was started from a 1 ml vial with approximately 500,000 cells stored in liquid nitrogen. Cells were propagated in 10 cm cell culture dishes by splitting every third day in a ratio of 1:3 until nine plates were available. Once confluent, fibroblasts were harvested. For 54 micro titer plates (96 well-MTP) a total of 14.3 million cells (passage eight) were re-suspended in 480 ml medium, corresponding to 100 microliters medium with 3,000 cells/well. The remaining cells were distributed in 10 cm cell culture plates (500,000 cells/plate) for propagation. The plates were incubated overnight at 37° C. in a atmosphere with 95% humidity and 5% CO2 to allow attachment of the cells to the culture plate.
10% DMSO (242.5 microliters) was added to a well of the microtiter plate. The test compounds were unfrozen, and 7.5 microliters of a 5 mM stock solution was dissolved in the well containing 242.5 microliters of 10% DMSO, resulting in a 150 micromolar master solution. Serial dilutions from the master solution were made. The period between the single dilution steps was kept as short as possible (generally less than 30 seconds). At least 4 hours after attachment into MTP, cells were then treated with the various compound dilutions.
Plates were kept overnight in the cell culture incubator. […]

[1] = Homo sapiens, average, compounds of the invention, read-out: Ec50 Average
[2] = Homo sapiens, average of three values, control compounds, read-out: EC50 Average
[3] = Homo sapiens, first of three experiments, read-out: EC50 Value 1
[4] = Homo sapiens, second of three experiments, read-out: EC50 Value 2
[5] = Homo sapiens, third of three experiments, read-out: EC50 Value 3

Row | Structure (SMILES) | EC50 [1] [µM] | further results
1 | CC1=C(C)C(=O)C(CCCc2nc3cc(C)ccc3[nH]2)=C(C)C1=O | 0.021 | –
2 | CC1=C(C)C(=O)C(CCc2ncc(C)s2)=C(C)C1=O | 0.027 | –
3 | CC1=C(C)C(=O)C(CCCn2c(C)nc3ccccc32)=C(C)C1=O | 0.026 | –
4 | CC1=C(C)C(=O)C(CCCc2nc3ccc(C)cc3o2)=C(C)C1=O | 0.007 | –
5 | CC1=C(C)C(=O)C(CCCc2nc3ccccc3o2)=C(C)C1=O | 0.02 | –
6 | CC1=C(C)C(=O)C(CCCc2nc3ccc(F)cc3[nH]2)=C(C)C1=O | 0.029 | –
7 | CCCCCCCCCCC1=C(C)C(=O)C(OC)=C(OC)C1=O [decylubiquinone, reference compound] | – | EC50 [2]: 0.038 µM; EC50 [3]: 0.05 µM; EC50 [4]: 0.035 µM; EC50 [5]: 0.03 µM
8 | CC1=C(C)C(=O)C(CCCc2nc3ccccc3n2C)=C(C)C1=O | 0.025 | –
9 | CC1=C(C)C(=O)C(CCCc2nc3ccccc3[nH]2)=C(C)C1=O | 0.014 | –
10 | CC1=C(C)C(=O)C(CCc2nc3ccccc3[nH]2)=C(C)C1=O | 0.02 | –
11 | CC1=C(C)C(=O)C(CCc2nc3ccccc3o2)=C(C)C1=O | 0.018 | –
12 | CC1=C(C)C(=O)C(CCCc2nc3cccc(F)c3[nH]2)=C(C)C1=O | 0.018 | –
13 | CC1=C(C)C(=O)C(CCCc2nc3ccc(F)cc3o2)=C(C)C1=O | 0.01 | –
14 | Cc1c(C)c2c(c(C)c1O)CC[C@@](C)(CCC[C@H](C)CCC[C@H](C)CCCC(C)C)O2 [alpha-tocopherol, (+)-alpha-tocopherol, reference compound] | – | EC50 (average of three values, control compounds, read-out: EC50 Average): 0.3 µM; EC50 (first of three experiments, read-out: EC50 Value 1): 0.4 µM; EC50 (second of three experiments, read-out: EC50 Value 2): 0.15 µM; EC50 (third of three experiments, read-out: EC50 Value 3): 0.35 µM
15 | CC1=C(C)C(=O)C(CCc2ncc[nH]2)=C(C)C1=O | 0.225 | –
16 | CC1=C(C)C(=O)C(CCCn2cnc3ccccc32)=C(C)C1=O | 0.021 | –
17 | Cc1c(C)c2c(c(C)c1O)CCC(C)(C(=O)O)O2 (stereo not drawn) [Trolox, 6-Hydroxy-2,5,7,8-tetramethylchromane-2-carboxylic acid, reference compound] | – | EC50 [2]: 8.7 µM; EC50 [3]: 9 µM; EC50 [4]: 9 µM; EC50 [5]: 8 µM

Row | Structure (SMILES) | EC50 [1] [µM] | further results
18 | CC1=C(C)C(=O)C(CCCc2nc3cc(C(F)(F)F)ccc3o2)=C(C)C1=O | 0.027 | –
19 | CC1=C(C)C(=O)C(CCCc2nc3ccc(C(=O)NCCCO)cc3[nH]2)=C(C)C1=O | > 0.2 | –
20 | CC1=C(C)C(=O)C(CCn2c(C)nc3ccccc32)=C(C)C1=O | 0.049 | –
21 | CC1=C(C)C(=O)C(CCCc2nc3cc(F)ccc3[nH]2)=C(C)C1=O | 0.009 | –
22 | CC1=C(C)C(=O)C(CCCc2nc3ccc(C(=O)N4CCN(C)CC4)cc3[nH]2)=C(C)C1=O | 0.092 | –
23 | CC1=C(C)C(=O)C(CCCc2nc3ccccc3s2)=C(C)C1=O | 0.006 | –
24 | CC1=C(C)C(=O)C(CCCc2nc3cccc(C)c3[nH]2)=C(C)C1=O | 0.007 | –
25 | CC1=C(C)C(=O)C(CCCc2nc3ccc(C(N)=O)cc3[nH]2)=C(C)C1=O | 0.08 | –
26 | CC1=C(C)C(=O)C(CCn2cnc3ccccc32)=C(C)C1=O | 0.028 | –
27 | CC1=C(C)C(=O)C(CCCc2nc3ccc(Cl)cc3[nH]2)=C(C)C1=O | 0.006 | –
28 | CC1=C(C)C(=O)C(CCc2nc3ccccc3s2)=C(C)C1=O | 0.006 | –
29 | COC1=C(OC)C(=O)C(CCCCCCCCCCO)=C(C)C1=O [Idebenone, reference compound] | – | EC50 [2]: 1.2 µM; EC50 [3]: 1.5 µM; EC50 [4]: 1 µM; EC50 [5]: 1 µM
30 | CC1=C(C)C(=O)C(CCCc2nc3cccnc3[nH]2)=C(C)C1=O | 0.113 | –
31 | CC1=C(C)C(=O)C(CCCn2cncn2)=C(C)C1=O | 0.426 | –
32 | CC1=C(C)C(=O)C(CCCc2nc3cc(Cl)ccc3s2)=C(C)C1=O | 0.028 | –
33 | CC1=C(C)C(=O)C(CCCc2nc3cc(C(F)(F)F)ccc3[nH]2)=C(C)C1=O | 0.008 | –
